According to US12202818B2, “Compounds and methods for CD73 modulation and indications therefor” (Opna Bio SA, priority 2020, dated 2025):

Tests used:
[1] = biological target: T1, Human CD73 (amino acid residues 27-549) (Homo sapiens, UniProt P21589); experiment: CD73 enzymatic assay (luciferase-based indirect assay, CellTiter-Glo); format: biochemical; conditions: 0.4 nM CD73, 150 μM AMP, 1 hour at room temperature
T1 construct: Human CD73 (amino acid residues 27-549); His tag (N); made in house; host or cells: E. coli
T1 sequence (P21589 27-549): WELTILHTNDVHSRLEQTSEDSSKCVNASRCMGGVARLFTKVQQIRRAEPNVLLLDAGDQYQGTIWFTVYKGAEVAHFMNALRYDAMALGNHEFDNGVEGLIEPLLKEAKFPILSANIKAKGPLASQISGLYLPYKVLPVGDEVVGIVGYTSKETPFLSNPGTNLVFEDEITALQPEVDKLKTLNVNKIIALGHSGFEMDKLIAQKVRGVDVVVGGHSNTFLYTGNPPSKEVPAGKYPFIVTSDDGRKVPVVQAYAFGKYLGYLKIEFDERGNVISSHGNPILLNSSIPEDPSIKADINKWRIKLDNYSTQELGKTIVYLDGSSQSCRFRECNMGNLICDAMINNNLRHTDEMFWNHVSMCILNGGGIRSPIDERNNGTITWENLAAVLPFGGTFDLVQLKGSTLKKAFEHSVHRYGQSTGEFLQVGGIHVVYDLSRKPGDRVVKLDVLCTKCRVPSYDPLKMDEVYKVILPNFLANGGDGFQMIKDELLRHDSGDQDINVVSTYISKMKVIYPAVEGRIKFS
Method in brief: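 Luciferase-coupled readout: AMP left after CD73 turnover suppresses CellTiter-Glo signal (1 μM ATP final, 30 min RT). Reaction beforehand: 150 μM AMP, 0.4 nM E. coli-made His-tagged CD73 residues 27-549, test compound, HEPES pH 7.4 with Tween-20, 1 h RT. % inhibition fitted nonlinearly for IC50.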

[2] = biological target: T2, human CD73 (Homo sapiens, UniProt P21589); experiment: Inhibitor activity against CD73 in cell based assay (CD73 expressing CHO-K1 cells); conditions: CHO-K1 cells expressing human CD73, 150 μM AMP, 4 hours of incubation; read-out: CHO-K1 CELL_VARIANT: CD73 IC50
T2 construct: expressed in transfected cells
T2 sequence (P21589 27-549): T1 sequence (P21589 27-549)
Method in brief: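 AMP (150 μM) was added alongside 8 titrated compound doses (maximum 10 μM, 1:3 steps) to CHO-K1 cells stably expressing human CD73. After 4 h, supernatant AMP was measured indirectly with CellTiter-Glo 2.0 plus 1 μM ATP (30 min, RT). % inhibition versus high and low controls was fitted nonlinearly for IC50.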

SMILES | IC50 [1] [µM] | IC50 [2] [µM]
O=C(O)C1CCC(c2ccnc(O[C@@H]3CCN(c4cn[nH]c(=O)c4Cl)C3)c2)CC1 (stereo partly drawn) [P-0047, (R)-4-(2-((1-(5-chloro-6-oxo-1,6-dihydropyridazin-4-yl)pyrrolidin-3-yl)oxy)pyridin-4-yl)cyclohexane-1-carboxylic acid] | 0.001 to 10 | 0.001 to 10
Cc1nn(CC(C)(C)O)c(C)c1-c1ccnc(O[C@H]2CN(c3cn[nH]c(=O)c3Cl)C[C@@H]2F)c1 [P-0021, 4-chloro-5-((3S,4S)-3-fluoro-4-((4-(1-(2-hydroxy-2-methylpropyl)-3,5-dimethyl-1H-pyrazol-4-yl)pyridin-2-yl)oxy)pyrrolidin-1-yl)pyridazin-3(2H)-one] | 0.001 to 10 | 0.001 to 10
CCNS(=O)(=O)c1ccc(-c2ccnc(O[C@@H]3CCN(c4cn[nH]c(=O)c4Cl)C3)c2)c(Cl)c1 [P-0202, (R)-3-chloro-4-(2-((1-(5-chloro-6-oxo-1,6-dihydropyridazin-4-yl)pyrrolidin-3-yl)oxy)pyridin-4-yl)-N-ethylbenzenesulfonamide] | 0.001 to 10 | 0.001 to 10
Cc1nn(C)c(C)c1-c1ccnc(O[C@@H]2CCN(c3cn[nH]c(=O)c3Cl)C2)c1 [P-0203, (R)-4-chloro-5-(3-((4-(1,3,5-trimethyl-1H-pyrazol-4-yl)pyridin-2-yl)oxy)pyrrolidin-1-yl)pyridazin-3(2H)-one] | 0.001 to 10 | 0.001 to 10
CC(C)(O)CN1CCC(c2ccnc(O[C@@H]3CCN(c4cn[nH]c(=O)c4Cl)C3)c2)CC1 [P-0010, (R)-4-chloro-5-(3-((4-(1-(2-hydroxy-2-methylpropyl)piperidin-4-yl)pyridin-2-yl)oxy)pyrrolidin-1-yl)pyridazin-3(2H)-one] | 0.001 to 10 | 0.001 to 10
Cc1nn(C)c(C)c1-c1cc(O[C@@H]2CCN(c3cnn(CCO)c(=O)c3Cl)C2)ccn1 [P-0135, (R)-4-chloro-2-(2-hydroxyethyl)-5-(3-((2-(1,3,5-trimethyl-1H-pyrazol-4-yl)pyridin-4-yl)oxy)pyrrolidin-1-yl)pyridazin-3(2H)-one] | 0.001 to 10 | 0.001 to 10
Cc1ccnc(C(C)C)c1Nc1cccnc1O[C@@H]1CCN(c2cn[nH]c(=O)c2Cl)C1 [P-0105, (R)-4-chloro-5-(3-((3-((2-isopropyl-4-methylpyridin-3-yl)amino)pyridin-2-yl)oxy)pyrrolidin-1-yl)pyridazin-3(2H)-one] | 0.001 to 10 | 0.001 to 10
Cc1nn(C)c(C)c1-c1cccc(O[C@@H]2CCN(c3cn[nH]c(=O)c3Cl)C2)c1 [P-0198, (R)-4-chloro-5-(3-(3-(1,3,5-trimethyl-1H-pyrazol-4-yl)phenoxy)pyrrolidin-1-yl)pyridazin-3(2H)-one] | 0.001 to 10 | 0.001 to 10
O=C(Nc1ccc(-c2ccnc(O[C@@H]3CCN(c4cn[nH]c(=O)c4Cl)C3)c2)c(F)c1)c1ccccc1 [P-0214, (R)-N-(4-(2-((1-(5-chloro-6-oxo-1,6-dihydropyridazin-4-yl)pyrrolidin-3-yl)oxy)pyridin-4-yl)-3-fluorophenyl)benzamide] | 0.001 to 10 | 0.001 to 10
Cc1noc(C)c1-c1cc(O[C@@H]2CCN(c3cnn(CC(O)CO)c(=O)c3Cl)C2)ncn1 (stereo partly drawn) [P-0140, 4-chloro-2-(2,3-dihydroxypropyl)-5-((R)-3-((6-(3,5-dimethylisoxazol-4-yl)pyrimidin-4-yl)oxy)pyrrolidin-1-yl)pyridazin-3(2H)-one] | 0.001 to 10 | 0.001 to 10
CCCn1nc(C)c(-c2cc(F)nc(O[C@@H]3CCN(c4cn[nH]c(=O)c4Cl)C3)c2)c1C [P-0165, (R)-4-chloro-5-(3-((4-(3,5-dimethyl-1-propyl-1H-pyrazol-4-yl)-6-fluoropyridin-2-yl)oxy)pyrrolidin-1-yl)pyridazin-3(2H)-one] | 0.001 to 10 | 0.001 to 10
Cc1noc(C)c1-c1cc(O[C@@H]2CCN(c3cnn(CCO)c(=O)c3Cl)C2)ccn1 [P-0136, (R)-4-chloro-5-(3-((2-(3,5-dimethylisoxazol-4-yl)pyridin-4-yl)oxy)pyrrolidin-1-yl)-2-(2-hydroxyethyl)pyridazin-3(2H)-one] | 0.001 to 10 | 0.001 to 10
Cc1nn(C)c(C)c1-c1cc(O[C@@H]2CCN(c3cnn(CCO)c(=O)c3Cl)C2)ncn1 [P-0128, (R)-4-chloro-2-(2-hydroxyethyl)-5-(3-((6-(1,3,5-trimethyl-1H-pyrazol-4-yl)pyrimidin-4-yl)oxy)pyrrolidin-1-yl)pyridazin-3(2H)-one] | 0.001 to 10 | 0.001 to 10
O=c1[nH]ncc(N2CC[C@@H](Oc3cc(-c4ccnc(O[C@@H]5CCN(c6cn[nH]c(=O)c6Cl)C5)c4)ccn3)C2)c1Cl [P-0215, 5,5′-((3R,3′R)-([4,4′-bipyridine]-2,2′-diylbis(oxy))bis(pyrrolidine-3,1-diyl))bis(4-chloropyridazin-3(2H)-one)] | 0.001 to 10 | 10 to 100
Cc1nn(CCN(C)C)c(C)c1-c1cc(F)nc(O[C@@H]2CCN(c3cn[nH]c(=O)c3Cl)C2)c1 [P-0161, (R)-4-chloro-5-(3-((4-(1-(2-(dimethylamino)ethyl)-3,5-dimethyl-1H-pyrazol-4-yl)-6-fluoropyridin-2-yl)oxy)pyrrolidin-1-yl)pyridazin-3(2H)-one] | 0.001 to 10 | 0.001 to 10
O=C(NC1CCN(c2ccnc(O[C@@H]3CCN(c4cn[nH]c(=O)c4Cl)C3)c2)CC1)C1CC1 [P-0222, (R)-N-(1-(2-((1-(5-chloro-6-oxo-1,6-dihydropyridazin-4-yl)pyrrolidin-3-yl)oxy)pyridin-4-yl)piperidin-4-yl)cyclopropanecarboxamide] | 0.001 to 10 | 0.001 to 10
